According to US8349880B2, “Bicyclic compounds for the reduction of beta-amyloid production” (Bristol-Myers Squibb Company, priority 2009, dated 2013):

tested on: Aβ1-42 production; assay: Cellular assay for inhibition of Aβ1-42 production (H4 APP751 SWE clone 8.20); assay type: cell-based; conditions: 19 h, H4 APP751 SWE clone 8.20 cells, 19 h incubation; read-out: Activity Rating (Aβ42 cellular IC50, given as a number)
Experimental: Cellular assays for inhibition of Aβ1-40 and Aβ1-42 production
H4 cells stably transfected with APP751 containing the Swedish mutation (H4 APP751 SWE clone 8.20, developed at BMS) were maintained in log phase through twice weekly passage at a 1:20 split. For IC50 determinations, 30 μl cells (1.5×10^4 cells/well) in DMEM media containing 0.0125% BSA (Sigma A8412) were plated directly into 384-well compound plates (Costar 3709) containing 0.1 μl serially diluted compound in DMSO. Following incubation for 19 h in 5% CO2 at 37° C., plates were briefly centrifuged (1000 rpm, 5 min). A 10 μl aliquot from each well was transferred to a second assay plate (Costar 3709) for Aβ40 measurements. Antibody cocktails were freshly prepared by dilution into 40 mM Tris-HCl (pH 7.4) with 0.2% BSA and added to assay plates. For Aβ42 measurements, antibodies specific for the Aβ42 neoepitope (565, developed at BMS; conjugated to the Wallac reagent (Perkin Elmer)) and the N-terminal sequence of Aβ peptide (26D6, developed at SIBIA; conjugated to APC (Perkin Elmer)) were mixed and 20 μl of the mixture was added to each well of the incubated cell plate yielding a final concentration of 0.8 ng/well 565 and 75 ng/well 26D6. For the Aβ40 measurements, antibodies specific for the Aβ40 neoepitope (TSD, developed at BMS; conjugated to the Wallac reagent (Perkin Elmer)) and 26D6 as described above were mixed and 20 μl of the mixture was added to the 10 μl aliquots which had been removed previously from the cell plate yielding a final concentration of 1.6 ng/well TSD and 17.5 ng/well 26D6. Assay plates containing antibodies were sealed with aluminum foil and incubated overnight at 4° C. Signal was determined using a Viewlux counter (Perkin Elmer) and IC50 values determined using curve fitting in CurveMaster (Excel Fit based).

| SMILES | IC50 [nM] |
| --- | --- |
| COc1cc(Nc2nc3n(n2)CCCCC3(O)c2ccc(F)cc2)ccc1-n1cnc(Cl)c1 (centres unmarked) [Example 92, 2-(4-(4-chloro-1H-imidazol-1-yl)-3-methoxyphenylamino)-9-(4-fluorophenyl)-6,7,8,9-tetrahydro-5H-[1,2,4]triazolo[1,5-a]azepin-9-ol] | 11 |
| COc1cc(Nc2nc3n(n2)CCCC[C@H]3c2cc(F)c(F)c(F)c2)ccc1-n1cnc(Cl)c1 (single isomer, unassigned) [Example 51] | 4 |

Other lines, results leading:

| IC50 [nM] | SMILES |
| --- | --- |
| 70 | COc1cc(Nc2nc3n(n2)CCC(N(C)C)CC3c2ccc(F)cc2)ccc1-n1cnc(Cl)c1 (centres unmarked) [Example 141, N2-(4-(4-chloro-1H-imidazol-1-yl)-3-methoxyphenyl)-9-(4-fluorophenyl)-N7,N7-dimethyl-6,7,8,9-tetrahydro-5H-[1,2,4]triazolo[1,5-a]azepine-2,7-diamine] |
| 1000 | COc1cc(Nc2nc3n(n2)CCCCC3c2ccc(S(C)(=O)=O)cc2)ccc1-n1cnc(C)n1 (centres unmarked) [Example 129, N-(3-methoxy-4-(3-methyl-1H-1,2,4-triazol-1-yl)phenyl)-9-(4-(methylsulfonyl)phenyl)-6,7,8,9-tetrahydro-5H-[1,2,4]-triazolo[1,5-a]azepin-2-amine 2,2,2-trifluoroacetate] |

same assay, conditions: 19 h, H4 APP751 SWE clone 8.20 cells, 19 h incubation; read-out: Activity Rating (based on Aβ42 cellular IC50 values)

| SMILES | IC50 [nM] |
| --- | --- |
| COc1cc(Nc2nc3n(n2)CCCC[C@@H]3c2ccc(F)cc2F)ccc1-n1cnc(Cl)c1 (single isomer, unassigned) [Example 37] | < 10 |
| COc1cc(Nc2nc3n(n2)CCCCC3c2ccc(OCC(F)(F)F)cc2)ccc1-n1cnc(Cl)c1 (centres unmarked) [Example 105, N-(4-(4-chloro-1H-imidazol-1-yl)-3-methoxyphenyl)-9-(4-(2,2,2-trifluoroethoxy)phenyl)-6,7,8,9-tetrahydro-5H-[1,2,4]triazolo[1,5-a]azepin-2-amine] | 10 to 100 |
| COc1cc(Nc2nc3n(n2)CCCC[C@H]3c2cc(F)cc(F)c2)ccc1-n1cnc(Cl)c1 (single isomer, unassigned) [Example 39] | < 10 |
| Cc1ncnn1-c1ccc(Nc2nc3n(n2)CCCC[C@@H]3c2ccc(OCC(F)F)cc2)cc1F (single isomer, unassigned) [Example 121] | 100 to 1000 |
| COc1cc(Nc2nc3c(s2)CC(N)CC3c2ccc(F)cc2)ccc1-n1cnc(Cl)c1 (centres unmarked) [Example 77, N2-(4-(4-chloro-1H-imidazol-1-yl)-3-methoxyphenyl)-4-(4-fluorophenyl)-4,5,6,7-tetrahydrobenzo[d]thiazole-2,6-diamine] | 100 to 1000 |
| COc1cc(Nc2nc3n(n2)CCCCC3c2ccc(Cl)nc2)ccc1-n1cnc(Cl)c1 (centres unmarked) [Example 41, N-(4-(4-chloro-1H-imidazol-1-yl)-3-methoxyphenyl)-9-(6-chloropyridin-3-yl)-6,7,8,9-tetrahydro-5H-[1,2,4]thiazolo[1,5-a]azepin-2-amine 2,2,2-trifluoroacetate] | 10 to 100 |
| Cc1ncn(-c2ccc(Nc3nc4n(n3)CCCC[C@H]4c3ccc(OCC(F)(F)F)cc3)cc2F)n1 (single isomer, unassigned) [Example 114] | 10 to 100 |
| COc1cc(Nc2nc3n(n2)CCCCC3c2cc(F)c(F)c(F)c2)ccc1-n1cnc(Cl)c1 (centres unmarked) [Example 50, N-(4-(4-chloro-1H-imidazol-1-yl)-3-methoxyphenyl)-9-(3,4,5-trifluorophenyl)-6,7,8,9-tetrahydro-5H-[1,2,4]triazolo[1,5-a]azepin-2-amine] | < 10 |
| COc1cc(Nc2nc3n(n2)CCCC[C@@H]3c2ccc(F)cc2)ccc1-n1cnc(Cl)c1 (single isomer, unassigned) [Example 18] | 10 to 100 |
| COc1cc(Nc2nc3n(n2)CCCC[C@@H]3c2cccc(Cl)c2)ccc1-n1cnc(Cl)c1 (single isomer, unassigned) [Example 55] | < 10 |
| COc1cc(Nc2nc3c(s2)CCCCC3c2ccc(F)cc2)ccc1-n1cnc(Cl)c1 (centres unmarked) [Example 85, N-(4-(4-chloro-1H-imidazol-1-yl)-3-methoxyphenyl)-4-(4-fluorophenyl)-5,6,7,8-tetrahydro-4H-cyclohepta[d]thiazol-2-amine 2,2,2-trifluoroacetate] | 10 to 100 |
| COc1cc(Nc2nc3n(n2)C(c2ccc(F)cc2)CCC3)ccc1-n1cnc(Cl)c1 (centres unmarked) [Example 89, N-(4-(4-chloro-1H-imidazol-1-yl)-3-methoxyphenyl)-5-(4-fluorophenyl)-5,6,7,8-tetrahydro-[1,2,4]triazolo[1,5-a]pyridin-2-amine 2,2,2-trifluoroacetate] | 10 to 100 |
| CNC1Cc2sc(Nc3ccc(-n4cnc(Cl)c4)c(OC)c3)nc2C(c2ccc(F)cc2)C1 (centres unmarked) [Example 79, N2-(4-(4-chloro-1H-imidazol-1-yl)-3-methoxyphenyl)-4-(4-fluorophenyl)-N-6-methyl-4,5,6,7-tetrahydrobenzo[d]thiazole-2,6-diamine] | 10 to 100 |
| Cc1ncn(-c2ccc(Nc3nc4n(n3)CCCCC4c3ccc(OCC(F)(F)F)cc3)cc2F)n1 (centres unmarked) [Example 113, N-(3-fluoro-4-(3-methyl-1H-1,2,4-triazol-1-yl)phenyl)-9-(4-(2,2,2-trifluoroethoxy)phenyl)-6,7,8,9-tetrahydro-5H-[1,2,4]triazolo[1,5-a]azepin-2-amine] | 10 to 100 |
| COc1cc(Nc2nc3n(n2)CCCCC3c2cccc(Cl)c2)ccc1-n1cnc(Cl)c1 (centres unmarked) [Example 53, N-(4-(4-chloro-1H-imidazol-1-yl)-3-methoxyphenyl)-9-(3-chlorophenyl)-6,7,8,9-tetrahydro-5H-[1,2,4]triazolo azepin-2-amine] | < 10 |
| COc1cc(Nc2nc3n(n2)CCCC[C@@H]3c2ccc(F)c(F)c2)ccc1-n1cnc(Cl)c1 (single isomer, unassigned) [Example 24] | < 10 |
| COc1cc(Nc2nc3c(s2)CC2(CC3c3ccc(F)cc3)OCCO2)ccc1-n1cnc(Cl)c1 (centres unmarked) [Example 74, N-(4-(4-chloro-1H-imidazol-1-yl)-3-methoxyphenyl)-4-(4-fluorophenyl)-5,7-dihydro-4H-spiro[benzo[d]thiazole-6,2′-[1,3]dioxolan]-2-amine] | 10 to 100 |

Other lines, results leading:

| IC50 [nM] | SMILES |
| --- | --- |
| 10 to 100 | CNC1CCn2nc(Nc3ccc(-n4cnc(Cl)c4)c(OC)c3)nc2C(c2ccc(F)cc2)C1 (centres unmarked) [Example 140, N2-(4-(4-chloro-1H-imidazol-1-yl)-3-methoxyphenyl)-9-(4-fluorophenyl)-N-7-methyl-6,7,8,9-tetrahydro-5H-[1,2,4]triazolo[1,5-a]azepine-2,7-diamine 2,2,2-trifluoroacetate] |
| 10 to 100 | Cc1ncnn1-c1ccc(Nc2nc3n(n2)CC[C@@H](O)C[C@@H]3c2ccc(F)cc2)cc1F (relative stereo) [Example 157, rel-(7S,9R)-2-(3-fluoro-4-(5-methyl-1H-1,2,4-triazol-1-yl)phenylamino)-9-(4-fluorophenyl)-6,7,8,9-tetrahydro-5H-[1,2,4]triazolo[1,5-a]azepin-7-ol 2,2,2-trifluoroacetate] |
| < 10 | COc1cc(Nc2nc3n(n2)CCC(C)CC3c2ccc(F)cc2)ccc1-n1cnc(Cl)c1 (centres unmarked) [Example 136, N-(4-(4-chloro-1H-imidazol-1-yl)-3-methoxyphenyl)-9-(4-fluorophenyl)-7-methyl-6,7,8,9-tetrahydro-5H-[1,2,4]triazolo[1,5-a]azepin-2-amine] |
| < 10 | Cc1ncn(-c2ccc(Nc3nc4n(n3)CCCCC4c3ccc(OC(F)(F)F)c(F)c3)cc2F)n1 (centres unmarked) [Example 164, N-(3-fluoro-4-(3-methyl-1H-1,2,4-triazol-1-yl)phenyl)-9-(3-fluoro-4-(trifluoromethoxy)phenyl)-6,7,8,9-tetrahydro-5H-[1,2,4]triazolo[1,5-a]azepin-2-amine] |
| 10 to 100 | CCOc1ccc(C2CCCCn3nc(Nc4ccc(-n5cnc(C)n5)c(OC)c4)nc32)cc1 (centres unmarked) [Example 132, 9-(4-ethoxyphenyl)-N-(3-methoxy-4-(3-methyl-1H-1,2,4-triazol-1-yl)phenyl)-6,7,8,9-tetrahydro-5H-[1,2,4]triazolo[1,5-a]azepin-2-amine 2,2,2-trifluoroacetate] |
| 10 to 100 | Cc1ncn(-c2ccc(Nc3nc4n(n3)CCC[C@@H]4c3ccc(OC(F)(F)F)cc3)cc2F)n1 (single isomer, unassigned) [Example 124] |
| < 10 | COc1cc(Nc2nc3n(n2)CCCCC3c2ccc(-n3cc(C)cn3)cc2)ccc1-n1cnc(Cl)c1 (centres unmarked) [Example 174, N-(4-(4-chloro-1H-imidazol-1-yl)-3-methoxyphenyl)-9-(4-(4-methyl-1H-pyrazol-1-yl)phenyl)-6,7,8,9-tetrahydro-5H-[1,2,4]triazolo[1,5-a]azepin-2-amine 2,2,2-trifluoroacetate] |
| 10 to 100 | COc1cc(Nc2nc3n(n2)CCCCC3c2ccc(OCC(F)F)cc2)ccc1-n1cnc(Cl)c1 (centres unmarked) [Example 161, N-(4-(4-chloro-1H-imidazol-1-yl)-3-methoxyphenyl)-9-(4-(2,2-difluoroethoxy)phenyl)-6,7,8,9-tetrahydro-5H-[1,2,4]triazolo[1,5-a]azepin-2-amine] |
